Measured values as given in patent US7176320B2, “Benzimidazole derivative” (Teijin Limited, priority 2000, dated 2007).

Assays:
[1] = molecular target: T1, recombinant human mast cell chymase (Homo sapiens, UniProt P23946); assay: Measurement of inhibition of enzyme activity of recombinant human mast cell chymase; type: biochemical; conditions: active human mast cell chymase, substrate succinyl-alanyl-histidyl-prolyl-phenylalanylparanitroanilide, 5 minutes at room temperature, absorbance 405 nm; read-out: inhibitory activity IC50
T1 construct: made in house; host or cells: insect cells (Th5) infected with recombinant baculovirus
T1 sequence (P23946 22-247): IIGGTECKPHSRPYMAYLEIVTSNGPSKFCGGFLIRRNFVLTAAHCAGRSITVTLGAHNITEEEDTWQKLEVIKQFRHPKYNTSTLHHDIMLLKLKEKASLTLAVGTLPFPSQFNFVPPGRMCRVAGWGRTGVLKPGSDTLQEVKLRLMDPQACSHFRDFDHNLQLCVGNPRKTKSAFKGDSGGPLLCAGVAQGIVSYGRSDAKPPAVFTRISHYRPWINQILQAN
Protocol: Recombinant human mast cell chymase was prepared in accordance with the report of Urata, et al. (Journal of Biological Chemistry, Vol. 266, p. 17173 (1991)). Namely, human mast cell chymase was purified by heparin sepharose (Pharmacia) from a culture supernatant of insect cells (Th5) infected with recombinant baculovirus containing cDNA coding for human mast cell chymase. Moreover, after activating in accordance with the report of Murakami, et al. (Journal of Biological Chemistry, Vol. 270, p. 2218 (1995)), the human mast cell chymase was purified with heparin sepharose to obtain active human mast cell chymase.
After adding 2 μl of DMSO solution containing a compound of the present invention to 50 μl of Buffer A (0.5–3.0 M NaCl, 50 mM Tris-HCl, pH 8.0) containing 1–5 ng of the active human mast cell chymase obtained in Example 16, 50 μl of Buffer A containing 0.5 mM succinyl-alanyl-histidyl-prolyl-phenylalanylparanitroanilide (Bacchem) as substrate were added and allowed to react for 5 minutes at room temperature. The changes over time in absorbance at 405 nm were measured to investigate inhibitory activity.

[2] = In vitro metabolism test using liver microsomes (Ms); type: in vitro ADME; conditions: liver microsomes 1.0 mg/mL, substrate 5.0 μM, NADPH 1.0 mM, 37° C.; for MR (metabolic rate at its maximum): pH 7.4
Protocol: The metabolic rate was determined from the decrease in the amount of the unchanged form at each reaction time and the reaction time based on assigning a value of 100% to the amount of the unchanged form at the initial concentration (reaction time: 0 minutes), and the metabolic rate at the time the metabolic rate reached a maximum was evaluated as the MR value. M=(substrate concentration at reaction time: 0 min.−substrate concentration after reaction)÷reaction time÷protein concentration (nmol/min./mg protein)

[3] = Measurement of blood concentration during administration by intragastric forced feeding to rats; type: in vivo, rat; conditions: male SD rats, fasting, 30 mg/kg, serum
Protocol: The compounds indicated with the above compound nos. 39, 52 and 244 were administered by intragastric forced feeding to male SD rats while fasting at a dose of 30 mg/kg, after which blood samples were collected immediately after administration and at 30 minutes and 1, 2 and 4 hours after administration. Following collection of blood samples, where samples were immediately separated into serum components, the compound of the present invention was extracted by ordinary solid phase extraction methods, and the resulting samples were analyzed by HPLC using an ODS column (32% acetonitrile-water-0.05% TFA was used for the mobile phase for compound nos. 52 and 244, while 47% acetonitrile-water-10 mM ammonium acetate buffer (pH 4.0) was used for the mobile phase for compound no. 39) followed by measurement of the amount of the unchanged form.

[4] = 30 minutes after administration

Structure (SMILES): Cn1cc(Cn2c(SCCCC(=O)O)nc3ccccc32)c2ccccc21 [Compound No. 34, 4-(1-((1-methylindole-3-yl)methyl)benzimidazole-2-ylthio)butanoic acid]
- IC50 [1]: 10 to 100 nM
- Percentage of substrate remaining after 30 min. [2]: 60.3%
- MR (metabolic rate at its maximum) [2]: 0.260 nmol/min./mg protein

Structure (SMILES): Cc1cccc2c1c(Cn1c(SCCCC(=O)O)nc3ccccc31)cn2C [Compound No. 39]
- IC50 [1]: 1 to 10 nM
- Percentage of substrate remaining after 30 min. [2]: 80.1%
- MR (metabolic rate at its maximum) [2]: 0 nmol/min./mg protein
- concentration at 30 min ([3]; rat, oral, 30 minutes after administration, read-out: Blood concentration of the unchanged form After 30 min.): 16100 ng/mL
- concentration at 4 h ([3]; rat, oral, 4 hours after administration, read-out: Blood concentration of the unchanged form After 4 hr.): 6300 ng/mL

Structure (SMILES): O=C(O)CCCSc1nc2ccccc2n1Cc1csc2ccccc12 [Compound No. 52]
- Percentage of substrate remaining after 30 min. [2]: 47.5%
- MR (metabolic rate at its maximum) [2]: 0.331 nmol/min./mg protein
- Blood concentration of the unchanged form After 30 min. [3, 4]: 60500 ng/mL
- Blood concentration of the unchanged form After 4 hr. ([3]; 4 hours after administration): 12700 ng/mL

Structure (SMILES): Cc1ccc2scc(Cn3c(SCCCC(=O)O)nc4ccccc43)c2c1 [Compound No. 56]
- Percentage of substrate remaining after 30 min. [2]: 41.2%
- MR (metabolic rate at its maximum) [2]: 0.111 nmol/min./mg protein

Structure (SMILES): COc1ccc2c(c1)nc(SCCCC(=O)O)n2Cc1cn(C)c2cccc(C)c12 [Compound No. 135]
- IC50 [1]: 10 to 100 nM
- Percentage of substrate remaining after 30 min. [2]: 55.2%
- MR (metabolic rate at its maximum) [2]: 0.097 nmol/min./mg protein

Structure (SMILES): COc1ccc2c(c1)nc(SCCCC(=O)O)n2Cc1csc2ccccc12 [Compound No. 148, 4-(1-((benzothiophene-3-yl)methyl)-5-methoxybenzimidazole-2-ylthio)butanoic acid]
- IC50 [1]: 1 to 10 nM

Structure (SMILES): COc1ccc2c(c1)nc(SCCCC(=O)O)n2Cc1csc2ccc(C)cc12 [Compound No. 152, 4-(1-((5-methylbenzothiophene-3-yl)methyl)-5-methoxybenzimidazole-2-ylthio)butanoic acid]
- IC50 [1]: 10 to 100 nM

Structure (SMILES): COc1ccc2c(c1)nc(SCCCC(=O)O)n2Cc1csc2cccc(C)c12 [Compound No. 154, 4-(1-((4-methylbenzothiophene-3-yl)methyl)-5-methoxybenzimidazole-2-ylthio)butanoic acid]
- IC50 [1]: 1 to 10 nM

Structure (SMILES): N#Cc1ccc2c(c1)nc(SCCCC(=O)O)n2Cc1csc2ccccc12 [Compound No. 244]
- Percentage of substrate remaining after 30 min. [2]: 57.9%
- MR (metabolic rate at its maximum) [2]: 0.211 nmol/min./mg protein
- Blood concentration of the unchanged form After 30 min. [3, 4]: 16500 ng/mL
- Blood concentration of the unchanged form After 4 hr. ([3]; 4 hours after administration): 8900 ng/mL

Structure (SMILES): Cc1ccc2nc(SCCCC(=O)O)n(Cc3csc4ccccc34)c2c1 [Compound No. 436]
- IC50 [1]: 10 to 100 nM

Structure (SMILES): Cc1cc2nc(SCCCC(=O)O)n(Cc3cn(C)c4cccc(C)c34)c2cc1C [Compound No. 519]
- IC50 [1]: 1 to 10 nM
- Percentage of substrate remaining after 30 min. [2]: 52.9%
- MR (metabolic rate at its maximum) [2]: 0.102 nmol/min./mg protein

Structure (SMILES): Cc1cc2nc(SCCCC(=O)O)n(Cc3csc4ccccc34)c2cc1C [Compound No. 532]
- IC50 [1]: 1 to 10 nM
- Percentage of substrate remaining after 30 min. [2]: 36.2%
- MR (metabolic rate at its maximum) [2]: 0.277 nmol/min./mg protein

Structure (SMILES): COc1ccc2nc(SCCCC(=O)O)n(Cc3csc4ccc(C)cc34)c2c1 [Compound No. 1112, 4-(1-((5-methylbenzothiophene-3-yl)methyl)-6-methoxybenzimidazole-2-ylthio)butanoic acid]
- IC50 [1]: 1 to 10 nM

Structure (SMILES): COc1ccc2nc(SCCCC(=O)O)n(Cc3csc4cccc(C)c34)c2c1 [Compound No. 1114, 4-(1-((4-methylbenzothiophene-3-yl)methyl)-6-methoxybenzimidazole-2-ylthio)butanoic acid]
- IC50 [1]: 1 to 10 nM

Structure (SMILES): Cc1cc2nc(SCCCC(=O)O)n(Cc3cn(C)c4ccccc34)c2cc1C [compound 514]
- Percentage of substrate remaining after 30 min. [2]: 48.7%
- MR (metabolic rate at its maximum) [2]: 0.087 nmol/min./mg protein

Structure (SMILES): Cc1ccc2scc(Cn3c(SCCCC(=O)O)nc4cc(C)c(C)cc43)c2c1 [compound 536]
- Percentage of substrate remaining after 30 min. [2]: 56.3%
- MR (metabolic rate at its maximum) [2]: 0.131 nmol/min./mg protein

Structure (SMILES): O=C(O)CCCSc1nc2cc(Cl)c(Cl)cc2n1Cc1csc2ccccc12 [compound 628]
- IC50 [1]: 10 to 100 nM
